Tested on: scopolamine induced memory impairment in male Swiss albino mice
Assay: Passive avoidance test, scopolamine induced memory impairment
Details: 5 mg/kg p.o.; scopolamine 1 mg/kg i.p.; mean ± SEM of six mice
Description: The rectangular larger compartment has 50 cm×50 cm grid floor and wooden walls of 35 cm height. The box was illuminated with a 100-W bulb placed 150 cm above the center. It has a roof, which can be opened or closed. One of the walls has a 6 cm×6 cm opening which to a dark smaller compartment having dimensions of 15 cm×15 cm. This compartment is provided with an electrifiable grid, which is connected to a constant current stimulator, and a ceiling that can be opened or closed. The connection between the two compartments can be closed with a sliding door made of transparent Plexiglas. […] The experiment was divided into three parts: An exploration test, Learning (Electric shock), and Retention testing.
The exploration test is done in three trials. During this, mice are placed in the center of the larger compartment facing away from the entrance to the dark compartment. The door between the two compartments is kept open. The mice are allowed to explore the apparatus (both larger and smaller compartments) for 3 minutes. In each trial, two things will be examined: Time taken by the mice to enter the dark compartment at each trial; and the total time spent by the animal in the dark compartment, using a stop-watch.
After the last exploration trial, the mice are placed in the larger compartment as done in the trial sessions. […]

## COc1cc2c(cc1OC)C(=O)C(CC1CCN(Cc3ccccc3)CC1)C2 (stereo not shown) [Donepezil]
  No. of crossings: 1.17 ± 0.17

Reference: US11433111B2 (priority 2019, dated 2022)
